According to patent publication US5484776A, “Process for the production of stable liquid form of beta-blocker-containing medicaments with controlled release of the active constituent for oral administration” (Synepos Aktiengesellschaft, priority 1993, dated 1996):

Assay: Drop size / reproducibility of drops of oral solutions with xanthan gum
Assay type: physicochemical
Conditions: 0.001% xanthan gum; metoprolol 200 mg/ml, sotalol 160 mg/ml, atenolol 50 mg/ml; n = 10
From the text: It was found also in this respect that when the concentration of Xanthan Gum was varied in the solution, the scattering of the exact number of drops was higher at both below and above 0.1% than at about this particular concentration (see Table II.).
Using a standard medicine dropper, 10 drops of the medicinal solutions prepared according to Examples 1-11 contain one usual dose of the beta-blocker in a stable form and ensuring reproducible dosage with the required accuracy, the difference by one drop corresponding to a deviation of less than 10%.
Drop size values of different solutions of β-blockers
and xanthan gum as auxiliary material (n = 10,

In order of falling “Average Mass of 10 Drops” value:
1. CC(C)NCC(O)COc1ccc(CC(N)=O)cc1 (stereo not drawn) [Atenolol, atenolol]  0.4038 g
2. CC(C)NCC(O)c1ccc(NS(C)(=O)=O)cc1 (stereo not drawn) [Sotalol, sotalol]  0.3805 g
3. COCCc1ccc(OCC(O)CNC(C)C)cc1 (stereo not drawn) [Metoprolol, metoprolol]  0.3490 g

Same assay, conditions: 0.01% xanthan gum; metoprolol 200 mg/ml, sotalol 160 mg/ml, atenolol 50 mg/ml; n = 10

In order of rising “Average Mass of 10 Drops” value:
1. COCCc1ccc(OCC(O)CNC(C)C)cc1 (stereo not drawn) [Metoprolol, metoprolol]  0.3446 g
2. CC(C)NCC(O)c1ccc(NS(C)(=O)=O)cc1 (stereo not drawn) [Sotalol, sotalol]  0.4067 g
3. CC(C)NCC(O)COc1ccc(CC(N)=O)cc1 (stereo not drawn) [Atenolol, atenolol]  0.4094 g

Same assay, conditions: 0.1% xanthan gum; metoprolol 200 mg/ml, sotalol 160 mg/ml, atenolol 50 mg/ml; n = 10

In order of rising “Average Mass of 10 Drops” value:
1. COCCc1ccc(OCC(O)CNC(C)C)cc1 (stereo not drawn) [Metoprolol, metoprolol]  0.3301 g
2. CC(C)NCC(O)c1ccc(NS(C)(=O)=O)cc1 (stereo not drawn) [Sotalol, sotalol]  0.4171 g
3. CC(C)NCC(O)COc1ccc(CC(N)=O)cc1 (stereo not drawn) [Atenolol, atenolol]  0.4395 g

Same assay, conditions: 0.25% xanthan gum; metoprolol 200 mg/ml, sotalol 160 mg/ml, atenolol 50 mg/ml; n = 10

In order of rising “Average Mass of 10 Drops” value:
1. COCCc1ccc(OCC(O)CNC(C)C)cc1 (stereo not drawn) [Metoprolol, metoprolol]  0.3497 g
2. CC(C)NCC(O)c1ccc(NS(C)(=O)=O)cc1 (stereo not drawn) [Sotalol, sotalol]  0.4345 g
3. CC(C)NCC(O)COc1ccc(CC(N)=O)cc1 (stereo not drawn) [Atenolol, atenolol]  0.4604 g

Same assay, conditions: 0.5% xanthan gum; metoprolol 200 mg/ml, sotalol 160 mg/ml, atenolol 50 mg/ml; n = 10

In order of falling “Average Mass of 10 Drops” value:
1. CC(C)NCC(O)COc1ccc(CC(N)=O)cc1 (stereo not drawn) [Atenolol, atenolol]  0.4456 g
2. CC(C)NCC(O)c1ccc(NS(C)(=O)=O)cc1 (stereo not drawn) [Sotalol, sotalol]  0.4052 g
3. COCCc1ccc(OCC(O)CNC(C)C)cc1 (stereo not drawn) [Metoprolol, metoprolol]  0.3559 g
